# Assays:
# [1] = Lipophilicity by reversed-phase thin-layer chromatography (RP-TLC), isopropanol-water mobile phase; format: physicochemical; conditions: for mRM (arithmetic mean of the experimental retention factors RM): RP-18F254s plates, isopropanol 70–90% in water; for RM0 (relative lipophilicity, RM extrapolated to pure water): Soczewinski Wachtmeister equation, isopropanol 70–90%; for lipophilicity (in words): chromatographic lipophilicity profile / lipophilicity descriptors; for PC1(RM): score of first principal component of RM values at isopropanol 70–90%; for b (slope): slope of RM versus isopropanol concentration; for φ0 (chromatographic hydrophobic index): φ0 = RM0/b
# Protocol: Lipophilicity was assessed by RP-TLC, using RP-[…] standard silica gel plates (20 × 10 cm) as the stationary phase. An isopropanol:water binary mixture was used as the mobile phase, with different isopropanol concentrations 70%, 75%, 80%, 85%, 90% for thiazolo[3,2-b][1,2,4]triazole (1a–16a) and imidazo[2,1-b][1,3,4]thiadiazole (1b–16b) compounds.
# The standard solutions (1 mg/mL) used to investigate the lipophilicity of the synthesized compounds were prepared in dichloromethane (1a–16a compounds) and dimethylsulfoxide (1b–16b compounds). From the obtained solutions, 2 µL was applied manually on the chromatographic plates, at 15 mm from the baseline and 5 mm from the edges of the plate at a spot distance of 12 mm. This procedure was repeated three times. The chromatographic plate upward elution was performed in a chromatographic chamber previously saturated for 30 min with mobile phase, at normal atmospheric pressure and room temperature. The migration distance of the eluent was 80 mm. The chromatographic plates were visually inspected under UV light at λ = 254 nm to identify the compounds. In order to minimize possible experimental errors, three measurements were performed for each mobile phase. The retention factors (Rf) were calculated as the average of three determinations in each case.
# Based on the Rf values, a variety of parameters can be determined to estimate the lipophilicity of the compounds. The isocratic retention factor (RM) was determined using the Bate–Smith and Westall equation [34]:RM = log(1/Rf − 1) where Rf = x/y and x = the migration distance of the compound, and y = the migration distance of the solvent front.
# There is usually a linear correlation between the RM values and the concentration of the organic component in the mobile phase. For a better estimation of lipophilicity, RM0 was determined as the extrapolated retention factor, considering pure water as the mobile phase (Soczewinski Wachtmeister equation):RM = RM0 + bC where b is the slope of the curve, which indicates the rate at which the solubility of the compound increases in the mobile phase, C is the concentration of the isopropanol in the mobile phase, and RM0 is the RM of the compound when the concentration of isopropanol is zero (extrapolated value).
# To estimate the lipophilicity of the compounds, φ0, representing the chromatographic hydrophobicity index, was also determined. It corresponds to the percentage (by volume) of the organic component in the mobile phase and can be determined according to the following formula:φ0 = RM0/b
# In order to assess the lipophilicity of compounds, other more relevant lipophilicity parameters have been used, such as the arithmetic mean of the experimental retention factors (mRM), and the score associated with the first principal component (PC1(RM)) obtained by applying principal component analysis (PCA) to the retention parameters RM [35, 36]. The determination of these parameters eliminates the errors that appear during the extrapolation procedure (when determining RM0) so that the results are more accurate.
# [2] = parameters: method as in doi:10.31925/farmacia.2018.5.20, PMID 30248903; conditions: acute inflammation, compared to diclofenac; cited from earlier work
# [3] = parameters: method as in doi:10.31925/farmacia.2018.5.20, PMID 30248903; conditions: in vivo; cited from earlier work
SMILES,mRM (arithmetic mean of the experimental retention factors RM) [1],"RM0 (relative lipophilicity, RM extrapolated to pure water) [1]",lipophilicity (in words) [1],PC1(RM) [1],b (slope) [1],φ0 (chromatographic hydrophobic index) [1],in vivo anti-inflammatory activity [2],pain threshold [3]
c1ccc(-c2cn3nc(-c4ccccc4)sc3n2)cc1 [Compound 1b],0.072,1.955,,−0.365,−0.024,83.18,significantly reduced acute inflammation in vivo,increased pain threshold
COc1ccc(-c2nc3scc(-c4ccccc4)n3n2)cc1 [Compound 9a],0.006,1.705,low lipophilicity,−0.127,−0.021,80.40,significantly reduced acute inflammation in vivo,increased pain threshold
NS(=O)(=O)c1ccc(-c2nc3scc(-c4ccccc4)n3n2)cc1 [Compound 13a],−0.555,1.472,the least lipophilic compounds,1.875,−0.026,57.72,significantly reduced acute inflammation in vivo,increased pain threshold
COc1ccc(-c2nn3cc(-c4ccccc4)nc3s2)cc1 [Compound 9b],0.138,1.900,low lipophilicity,−0.596,−0.022,85.59,significantly reduced acute inflammation in vivo,increased pain threshold
COc1ccc(-c2csc3nc(-c4ccccc4)nn23)cc1 [Compound 4a],0.031,1.612,low lipophilicity,−0.216,−0.020,81.40,significantly reduced acute inflammation in vivo,increased pain threshold

# Now from value to molecule, other results behind:
mRM (arithmetic mean of the experimental retention factors RM) [1],"RM0 (relative lipophilicity, RM extrapolated to pure water) [1]",lipophilicity (in words) [1],PC1(RM) [1],b (slope) [1],φ0 (chromatographic hydrophobic index) [1],SMILES,in vivo anti-inflammatory activity [2],pain threshold [3]
0.071,1.805,low lipophilicity,−0.362,−0.022,83.16,COc1ccc(-c2cn3nc(-c4ccccc4)sc3n2)cc1 [Compound 4b],significantly reduced acute inflammation in vivo,increased pain threshold
−0.464,0.988,the least lipophilic compounds,1.554,−0.018,53.99,NS(=O)(=O)c1ccc(-c2nn3cc(-c4ccccc4)nc3s2)cc1 [Compound 13b],significantly reduced acute inflammation in vivo,increased pain threshold
0.097,1.460,low lipophilicity,−0.450,−0.017,85.89,COc1ccc(-c2cn3nc(-c4ccc(OC)cc4)sc3n2)cc1 [Compound 12b],significantly reduced acute inflammation in vivo,increased pain threshold
0.056,1.810,,−0.309,−0.022,82.63,c1ccc(-c2nc3scc(-c4ccccc4)n3n2)cc1 [Compound 1a],significantly reduced acute inflammation in vivo,increased pain threshold
−0.013,1.696,low lipophilicity,−0.058,−0.021,79.62,COc1ccc(-c2nc3scc(-c4ccc(OC)cc4)n3n2)cc1 [Compound 12a],significantly reduced acute inflammation in vivo,increased pain threshold
0.144,2.270,,−0.624,−0.027,85.32,Clc1ccc(-c2nn3cc(-c4ccccc4)nc3s2)cc1 [Compound 5b],significantly reduced acute inflammation in vivo,increased pain threshold
